Earlier results as cited in patent publication US11634466B2, “Musclin peptides and methods of use thereof” (UNIVERSITY OF IOWA RESEARCH FOUNDATION, priority 2016, dated 2023).

Biological target: T1, NPRA (Homo sapiens, UniProt P16066)
T1 sequence (P16066 33-1061): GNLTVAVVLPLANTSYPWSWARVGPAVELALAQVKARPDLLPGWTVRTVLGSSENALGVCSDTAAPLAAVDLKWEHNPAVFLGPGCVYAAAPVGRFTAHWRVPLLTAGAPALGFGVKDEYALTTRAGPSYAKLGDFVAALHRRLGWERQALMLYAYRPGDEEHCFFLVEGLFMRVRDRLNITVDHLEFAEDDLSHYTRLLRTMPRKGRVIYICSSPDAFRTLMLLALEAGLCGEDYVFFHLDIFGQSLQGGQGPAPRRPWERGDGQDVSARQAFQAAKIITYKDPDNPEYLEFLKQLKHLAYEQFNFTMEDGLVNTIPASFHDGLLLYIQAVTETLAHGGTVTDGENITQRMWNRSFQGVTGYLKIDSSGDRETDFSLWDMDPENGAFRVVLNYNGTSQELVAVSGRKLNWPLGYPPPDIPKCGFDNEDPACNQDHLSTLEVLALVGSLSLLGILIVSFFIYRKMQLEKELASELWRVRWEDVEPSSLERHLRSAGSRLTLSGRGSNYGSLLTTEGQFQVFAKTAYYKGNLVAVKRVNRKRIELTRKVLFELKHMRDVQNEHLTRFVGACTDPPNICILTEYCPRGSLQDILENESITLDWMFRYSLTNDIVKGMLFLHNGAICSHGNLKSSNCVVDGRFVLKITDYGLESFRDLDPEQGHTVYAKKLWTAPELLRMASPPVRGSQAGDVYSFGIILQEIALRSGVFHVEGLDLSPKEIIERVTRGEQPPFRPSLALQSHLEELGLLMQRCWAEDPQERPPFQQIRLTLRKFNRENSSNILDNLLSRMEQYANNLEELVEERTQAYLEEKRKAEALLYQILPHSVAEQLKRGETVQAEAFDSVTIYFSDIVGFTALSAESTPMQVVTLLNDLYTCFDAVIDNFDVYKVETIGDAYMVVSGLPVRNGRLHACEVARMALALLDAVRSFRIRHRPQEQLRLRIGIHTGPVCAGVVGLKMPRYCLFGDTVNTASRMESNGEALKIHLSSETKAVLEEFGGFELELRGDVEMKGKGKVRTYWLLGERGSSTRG
Settings: background statement; without activating the linked guanylyl cyclase; cited from earlier work

## H-SFSGFGSPLDRLSAGSVEHRGKQRKAVDHSKKR-OH [musclin]
  binding to NPRA: weak binding
